Data taken from US10166218B2, “3-(1H-indol-2-yl)-1H-pyrazolo[3,4-C]pyridines and therapeutic uses thereof” (Samumed, LLC, priority 2015, dated 2019).

Columns and labels:
Type in all cases: cell-based
[1] = system: Wnt activity (Sp5-Luc reporter, TCF/LEF binding sites) in SW480 colon carcinoma cells; test: Screening assay for Wnt activity: Sp5-Luc reporter gene assay in stably transduced SW480 cells; conditions: Homo sapiens, overnight incubation
Description: The screening assay for Wnt activity is described as follows. Reporter cell lines can be generated by stably transducing cancer cell lines (e.g., colon cancer) or primary cells (e.g., IEC-6 intestinal cells) with a lentiviral construct that includes a Wnt-responsive promoter driving expression of the firefly luciferase gene.
SW480 colon carcinoma cells were transduced with a lentiviral vector expressing luciferase with a human Sp5 promoter consisting of a sequence of eight TCF/LEF binding sites. SW480 cells stably expressing the Sp5-Luc reporter gene and a hygromycin resistance gene were selected by treatment with 150 μg/mL of hygromycin for 7 days. These stably transduced SW480 cells were expanded in cell culture and used for all further screening activities. Each compound was dissolved in DMSO as a 10 mM stock and used to prepare compound source plates. Serial dilution (1:3, 10-point dose-response curves starting from 10 μM) and compound transfer was performed using the ECHO 550 (Labcyte, Sunnyvale, Calif.) into 384-well white solid bottom assay plates (Greiner Bio-One) with appropriate DMSO backfill for a final DMSO concentration of 0.1%. For Sp5-Luc reporter gene assays, the cells were plated at 4,000 cells/well in 384-well plates with medium containing 1% fetal bovine serum and incubated overnight at 37° C. and 5% CO2. Following incubation, 20 μl of BrightGlo luminescence reagent (Promega) was added to each well of the 384-well assay plates. The plates were placed on an orbital shaker for 2 min and then luminescence was quantified using the Envision (Perkin Elmer) plate reader. Readings were normalized to DMSO only treated cells, and normalized activities were utilized for EC50 calculations using the dose-response log (inhibitor) vs. response-variable slope (four parameters) nonlinear regression feature available in GraphPad Prism 5.0 (or Dotmatics). For EC50 of >10 μM, the percent inhibition at 10 μM is provided.

[2] = system: SW480 colon cancer cells; test: Cell viability assay (CellTiter-Blue) in SW480 colon cancer cells; conditions: Homo sapiens, 96 h, four days, CellTiter-Blue
Method: Representative compounds were screened using the following assay procedure to assess the effect on cell viability as described below.
Each compound was dissolved in DMSO as a 10 mM stock and used to prepare compound source plates. Serial dilution (1:3, 8-point dose-response curves from 10 μM to 0.0045 μM) and compound transfer was performed using the ECHO 550 (Labcyte, Sunnyvale, Calif.) into 96-well clear bottom, black-walled plates (Corning-Costar).
Approximately 2×10^3 SW480 colon cancer cells were seeded into each well and allowed to incubate in the presence or absence of compound for four days at 37° C./5% CO2. Eight replicates of DMSO-treated cells served as controls and cells treated with compound were performed in duplicate.
After incubation, 20 μL of CellTiter-Blue (Promega) was added to each well allowed to incubate for approximately 3 hours. This reagent was a buffered solution which contains resazurin, metabolically active cells were able to reduce rezarurin (blue) into resorufin (pink) which was highly fluorescent. This measured fluorescence was used as a readout for cell viability.
After incubation, the plates were read at Ex 560 nm Em 590 nm (Cytation 3, BioTek). Dose-response curves were generated and EC50 concentration values were calculated using non-linear regression curve fit in the GraphPad Prism (San Diego, Calif.) or Dotmatics' Studies Software (Bishops Stortford, UK). For EC50 of >10 μM, the percent inhibition at 10 μM is provided.

[3] = system: primary human fibroblasts derived from IPF patients (LL29 cells) treated with TGF-β1; α-smooth muscle actin (αSMA); test: Inhibition of the fibrotic process: αSMA staining in TGF-β1 treated primary human fibroblasts from IPF patients (LL29 cells); conditions: Fibroblast, 96 h, TGF-β1 20 ng/mL, 4 days, % cells positive for αSMA
Description: Representative compounds were screened using primary human fibroblasts (derived from IPF patients) treated with TGF-β1 to determine their ability to inhibit the fibrotic process.
Primary human fibroblasts derived from IPF patients (LL29 cells) [^1Xiaoqiu Liu, et. al., “Fibrotic Lung Fibroblasts Show Blunted Inhibition by cAMP Due to Deficient cAMP Response Element-Binding Protein Phosphorylation”, Journal of Pharmacology and Experimental Therapeutics (2005), 315(2), 678-687; ^2Watts, K. L., et. al., “RhoA signaling modulates cyclin D1 expression in human lung fibroblasts; implications for idiopathic pulmonary fibrosis”, Respiratory Research (2006), 7(1), 88] were obtained from American Type Culture Collection (ATCC) and expanded in F12 medium supplemented with 15% Fetal Bovine Serum and Penicillin/Streptomycin.
Each compound was dissolved in DMSO as a 10 mM stock and used to prepare compound source plates. Serial dilution (1:2, 11-point dose-response curves from 10 μM to 1.87 nM) and compound transfer was performed using the ECHO 550 (Labcyte, Sunnyvale, Calif.) into 384-well clear bottom assay plates (Greiner Bio-One) with appropriate DMSO backfill for a final DMSO concentration of 0.1%. LL29 cells are plated at 1,500 cells/well in 80 μL/well F12 medium supplemented with 1% Fetal Bovine Serum. One hour after addition of the cells, TGF-β1 (Peprotech; 20 ng/mL) was added to the plates to induce fibrosis (ref. 1 and 2 above). Wells treated with TGF-β1 and containing DMSO were used as controls. Cells were incubated at 37° C. and 5% CO2 for 4 days. Following incubation for 4 days, SYTOX green nucleic acid stain (Life Technologies [Thermo Fisher Scientific]) was added to the wells at a final concentration of 1 μM and incubated at room temperature for 30 min. Cells were then fixed using 4% formaldehyde (Electron Microscopy Sciences), washed 3 times with PBS followed by blocking and permeabilization using 3% Bovine Serum Albumin (BSA; Sigma) and 0.3% Triton X-100 (Sigma) in PBS. Cells were then stained with antibody specific to α-smooth muscle actin (αSMA; Abcam) (ref. 1 and 2 above) in 3% Bovine Serum Albumin (BSA; Sigma) and 0.3% Triton X-100 (Sigma) in PBS, and incubated overnight at 4° C. Cells were then washed 3 times with PBS, followed by incubation with Alexa Flor-647 conjugated secondary antibody (Life Technologies [Thermo Fisher Scientific]) and DAPI at room temperature for 1 hour. Cells were then washed 3 times with PBS and plates were sealed for imaging. αSMA staining was imaged by excitation at 630 nm and emission at 665 nm and quantified using the Compartmental Analysis program on the CellInsight CX5 (Thermo Scientific). Dead or apoptotic cells were excluded from analysis based on positive SYTOX green staining. % of total cells positive for αSMA were counted in each well and normalized to the average of 11 wells treated with TGF-β1 on the same plate using Dotmatics' Studies Software. The normalized averages (fold change over untreated) of 3 replicate wells for each compound concentration were used to create dose-responses curves and EC50 values were calculated using non-linear regression curve fit in the Dotmatics' Studies Software. For EC50 of >10 μM, the percent inhibition at 10 μM is provided.

[4] = system: IL-6 (THP-1 cells); test: Inhibition of IL-6 in LPS-stimulated THP-1 human monocyte cells (HTRF); conditions: inhibition of IL-6 in LPS-stimulated THP-1 cells, HTRF, 10-point dose-response starting from 10 μM
Method: Human monocyte cell line (THP-1 cells; Catalog # TIB-202, ATCC, Manassas, Va.) were cultured in Roswell Park Memorial Institute (RPMI) 1640 Medium (Catalog #21870-100, Buffalo, N.Y.) with 1% L-glutamine, 1% HEPES, 1% Sodium Pyruvate, 2% Sodium Bicarbonate supplemented with 100 units/mL penicillin, 50 μg/mL streptomycin, 2-mercaptoethanol (0.05 mM) [basal medium] and 10% fetal bovine serum (Catalog #16140089, Life Technologies, Carlsbad, Calif.) at 37° C. and 5% CO2.
THP-1 cells were cultured in basal media with 1% FBS for 24 hours before the start of the assay. Each compound was dissolved in DMSO as a 10 mM stock and used to prepare compound source plates. Serial dilution (1:3, 10-point dose-response curves starting from 10 μM) and compound transfer was performed using the ECHO 550 (Labcyte, Sunnyvale, Calif.) into 384-well white low volume assay plates (Greiner Bio-One) with appropriate DMSO backfill for a final DMSO concentration of 0.1%. THP-1 cells were plated at 5000 cells/well in the 384-well plates and incubated at 37° C. for 2 h. 500 ng/mL of LPS was added after 2 hours and cells were incubated for another 22 hours at 37° C. Plates were spun in a centrifuge for 1 minute at […] and a mixture of anti-IL6 XL665, and anti-IL6 Cryptate diluted in reconstitution buffer (Cisbio Inc.) was added to each well. Following incubation for 3 hrs at room temperature, Homogeneous Time-Resolved Fluorescence (HTRF) was measured using the Envision (Perkin Elmer) at 665 nm and […]. The ratio of fluorescence at 665 nm to 620 nm was used as a readout for IL6 quantification. All samples were processed in duplicate. Readings were normalized to DMSO treated cells and normalized activities were utilized for EC50 calculations using the dose-response log (inhibitor) vs. response-variable slope (four parameters) nonlinear regression feature available in GraphPad Prism 5.0 (or Dotmatics). For EC50 of >10 μM, the percent inhibition at 10 μM is provided.

| SMILES | EC50 [1] [nM] | EC50 [2] [nM] | EC50 [4] [nM] | EC50 [3] [nM] |
| --- | --- | --- | --- | --- |
| CN(C)c1cncc(-c2cc3c(-c4cc5c(-c6cccs6)cccc5[nH]4)n[nH]c3cn2)c1 [Compound 343, N,N-Dimethyl-5-(3-(4-(thiophen-2-yl)-1H-indol-2-yl)-1H-pyrazolo[3,4-c]pyridin-5-yl)pyridin-3-amine] | 1130 | 696 | 7750 | 134 |
| CCC(=O)Nc1cncc(-c2cc3c(-c4cc5c(-c6cccc(F)c6)cccc5[nH]4)n[nH]c3cn2)c1 [Compound 1, N-(5-(3-(4-(3-Fluorophenyl)-1H-indol-2-yl)-1H-pyrazolo[3,4-c]pyridin-5-yl)pyridin-3-yl)propionamide] | 570 | 4070 | 2920 | 529 |
| Fc1cccc(-c2cccc3[nH]c(-c4n[nH]c5cnc(-c6ccccn6)cc45)cc23)c1 [Compound 28, 3-(4-(3-Fluorophenyl)-1H-indol-2-yl)-5-(pyridin-2-yl)-1H-pyrazolo[3,4-c]pyridine] | 2240 | 3530 | 3600 | 1180 |
| CC(C)(C)C(=O)Nc1cncc(-c2cc3c(-c4cc5c(-c6ccc(F)cc6)cccc5[nH]4)n[nH]c3cn2)c1 [Compound 36, N-(5-(3-(4-(4-Fluorophenyl)-1H-indol-2-yl)-1H-pyrazolo[3,4-c]pyridin-5-yl)pyridin-3-yl)pivalamide] | 872 | 5960 | 1630 | 1010 |
| CN(C)CCNc1cc(F)cc(-c2cccc3[nH]c(-c4n[nH]c5cnc(-c6cncc(NC(=O)Cc7ccccc7)c6)cc45)cc23)c1 [Compound 458, N-(5-(3-(4-(3-((2-(Dimethylamino)ethyl)amino)-5-fluorophenyl)-1H-indol-2-yl)-1H-pyrazolo[3,4-c]pyridin-5-yl)pyridin-3-yl)-2-phenylacetamide] | 3590 | 4550 | 3300 | 2840 |
| Fc1ccccc1-c1cccc2[nH]c(-c3n[nH]c4cnc(-c5cccnc5)cc34)cc12 [Compound 60, 3-(4-(2-Fluorophenyl)-1H-indol-2-yl)-5-(pyridin-3-yl)-1H-pyrazolo[3,4-c]pyridine] | 740 | 909 | 2570 | 90 |
| CN(C)Cc1cncc(-c2cc3c(-c4cc5c(-c6cccc(F)c6)cccc5[nH]4)n[nH]c3cn2)c1 [Compound 13, 1-(5-(3-(4-(3-Fluorophenyl)-1H-indol-2-yl)-1H-pyrazolo[3,4-c]pyridin-5-yl)pyridin-3-yl)-N,N-dimethylmethanamine] | 1350 | 4930 | 7520 | 2200 |

Molecules with a lower EC50 [1], results first:

| EC50 [1] [nM] | EC50 [2] [nM] | EC50 [4] [nM] | SMILES | EC50 [3] [nM] |
| --- | --- | --- | --- | --- |
| 485 | 370 | 481 | c1ccc(-c2cc3c(-c4cc5c(-c6ccncc6)cccc5[nH]4)n[nH]c3cn2)nc1 [Compound 140, 5-(Pyridin-2-yl)-3-(4-(pyridin-4-yl)-1H-indol-2-yl)-1H-pyrazolo[3,4-c]pyridine] | 319 |
| 157 | 103 | 5080 | c1cc(-c2ccoc2)c2cc(-c3n[nH]c4cnc(-c5ccncc5)cc34)[nH]c2c1 [Compound 326, 3-(4-(Furan-3-yl)-1H-indol-2-yl)-5-(pyridin-4-yl)-1H-pyrazolo[3,4-c]pyridine] | 1390 |
| 137 | 1070 | 422 | FC1(F)CCN(Cc2cncc(-c3cc4c(-c5cc6c(-c7cccnc7)cccc6[nH]5)n[nH]c4cn3)c2)C1 [Compound 110, 5-(5-((3,3-Difluoropyrrolidin-1-yl)methyl)pyridin-3-yl)-3-(4-(pyridin-3-yl)-1H-indol-2-yl)-1H-pyrazolo[3,4-c]pyridine] | 81 |
| 108 | 5830 | 3350 | CC(C)Nc1cncc(-c2cc3c(-c4cc5c(-c6ccncc6)cccc5[nH]4)n[nH]c3cn2)c1 [Compound 124, N-Isopropyl-5-(3-(4-(pyridin-4-yl)-1H-indol-2-yl)-1H-pyrazolo[3,4-c]pyridin-5-yl)pyridin-3-amine] | 138 |
